According to PMC5056396, “Hexokinase I N-terminal based peptide prevents the VDAC1-SOD1 G93A interaction and re-establishes ALS cell viability” (Scientific Reports, 2016):

What was measured:
[1] = tested on: SOD1 G93A binding to intact mitochondria purified from NSC34 cells; test: Mitochondrial binding assay of SOD1 G93A after pre-incubation with peptide; set-up: species or system mouse; conditions: scramble control
Method: The ability of NHK1 to inhibit SOD1 G93A from binding the mitochondrial surface was investigated using intact mitochondria purified from NSC34 cells. Mitochondria were incubated with SOD1 G93A, in the presence or absence of 60 μM NHK1 peptide. […] Following incubation with NHK1, a dramatic decrease of 85% SOD1 G93A bound to mitochondria was seen (Fig. 5D). Again, no effect was found by incubating mitochondria with the ScNHK1 peptide.
Intact mitochondria were purified from NSC34 cells by Mitochondrial isolation kit (Miltenyi Biotech), according with manufacturer’s instructions. Isolated, intact mitochondria, in the storage buffer provided, were quantified by Lowry method. Mitochondria were incubated with 2 μg of purified SOD1 WT or G93A for 1 h at RT, under constant shaking in storage buffer. Alternatively, a pre-incubation with 60 μM NHK1 peptide for 1 h, in the same condition, was performed. Mitochondrial pellet was collected by centrifugation for 2 min at 13000×g. Supernatants were collected, and mitochondrial pellets were lysed using 3% Triton X-100. Proteins in mitochondrial or supernatant fraction were detected by western blot and quantified as explained in Supplementary Information. At least, three independent experiments were performed.

NSC34-SOD1G93A cells = test: Cell viability assay (MTT); type: cell-based, mouse; conditions: expression from transfected plasmid
Excerpt: (§1) In order to analyze the effect of NHK1 peptide in our ALS-like in cellulo system, the subcellular distribution of NHK1 peptide was investigated. NSC34 cells were transiently transfected with a plasmid encoding for a HA-tagged NHK1 peptide and for a mitochondrial-targeted Red Fluorescent Protein (mtDsRED)[18]. […] Then, the NHK1 peptide, as well as the whole HK1 as control, was expressed in NSC34-SOD1G93A or SOD1WT to evaluate its ability to counteract the toxicity mediated by mutSOD1. Literature reports indicate that SOD1 mutants expression in NSC34 cell promote a significative loss of cell viability, accordingly with the specific mutation. […] Therefore, supplementation of NHK1 peptide (or HK1) to NSC34-SOD1G93A cells promotes a recovery of the cell viability.
24 h-induced NSC34-SOD1WT and NSC34-SOD1G93A cells seeded on 24-well plates were transfected using 0,25 μg of pEGFP-N1-HK1 or empty pEGFP-N1 or 0,5 μg of pMCS-mtDsRED-NHK1 or scramble or empty pCMS-mtDsRED. Cell viability was analyzed using 3-(4,5-dimethylthiazol-2-yl)-2,5-diphenyltetrazolium bromide (MTT)[47] (Sigma). A colorimetric assay was performed using the microplate reader Varioskan (Thermo Scientific). Reported data are representative for three sets of independent experiments, each performed in triplicate. Data were statistically analyzed using one-way ANOVA followed by Bonferroni post hoc test. […]

NSC34 cells = test: Subcellular distribution by indirect immunofluorescence; type: cell-based, mouse; conditions: HA-tagged NHK1 expressed from plasmid with mtDsRED, transient transfection
Excerpt: as §1
Plasmids and cell transfection […]
NSC34 cells not transfected or transfected with 0,5 µg of pCMS-mtDsRED-NHK1-HA were fixed in 3.7% formaldehyde and permeabilized using 0.3% Triton X-100. […] Endogenous HK1 was detected in not transfected cells by incubating over-night cells with rabbit anti-HK1 antibody (1:100) (Abcam). NHK1-HA was detected in transfected cells by incubating over-night cells with rabbit anti-HA antibody (1:100) (Santa Cruz Biotechnology, Inc.). […]
examined by fluorescence microscopy. […]

Sequence	effect on SOD1 G93A bound to mitochondria [1]	effect on cell viability of NSC34-SOD1G93A (NSC34-SOD1G93A cells)	subcellular localization (NSC34 cells)
FAQLTIALAYY [ScNHK1, scramble peptide (…) synthetized and used as control, reference compound]	no effect	does not change the cell viability	–
IAAQLLAYYFT [NHK1, peptide corresponding to residues 2–12 (N-terminal region) of human HK1 protein (…)]	–	–	mainly co-localized with mtDsRED signal
